This assay has as its target Sigma non-opioid intracellular receptor 1 (Homo sapiens, UniProt Q99720).
Sequence of Sigma non-opioid intracellular receptor 1 (Q99720 whole entry): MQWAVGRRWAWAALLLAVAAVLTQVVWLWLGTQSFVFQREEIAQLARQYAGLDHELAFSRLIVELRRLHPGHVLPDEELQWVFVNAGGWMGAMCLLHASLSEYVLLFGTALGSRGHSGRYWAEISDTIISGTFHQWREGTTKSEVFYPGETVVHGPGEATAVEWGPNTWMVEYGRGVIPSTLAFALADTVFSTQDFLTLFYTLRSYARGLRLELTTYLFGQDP
The term Ki denotes the dissociation constant of the complex between target and ligand, obtained from inhibition or displacement. The low end stands for higher affinity, the high end for lower affinity. Molecule `O=c1[nH]c2nccn2c2c1ncn2C1CC(O)C(COP(=O)(O)OP(=O)(O)OP(=O)(O)O)O1` (centres undefined) [CAS_85976-54-1] yielded a Ki of 42 nM.

On to `COc1ccc2c(c1)C13CCCCC1C(C2)N(C)CC3` (centres undefined) [Levomethorpan], for which the affinity, expressed as Ki, was 521 nM.

In the case of `CCN(CC)CCOCCOC(=O)C1(c2ccccc2)CCCC1` [SMR000326757], the Ki stood at 10.4 nM.

As to `C#CCN(C)CCCOc1ccc(Cl)cc1Cl` [US8633208, Clorgyline], affinity was put at a Ki of 8.7 nM.

(Values after BindingDB's records for PubMed 10087012 (Medical College of Georgia, 1999).)
